Values of other authors in patent publication US20160000720A1, “Pharmaceutical compositions comprising Tadalafil” (AUROBINDO PHARMA LIMITED, priority 2013, published 2016).

CN1CC(=O)N2[C@H](c3ccc4c(c3)OCO4)c3[nH]c4ccccc4c3C[C@@H]2C1=O [Tadalafil, (6R,12aR)-6-(1,3-benzodioxol-5-yl)-2,3,6,7,12,12a hexa hydro-2-methylpyrazino[1′,2′:1,6]pyrido[3,4-b]indole-1,4-dione]
solubility in water (in words): practically insoluble in water | soluble in water in a concentration up to (according to WO 01/08687): up to 2 μg/ml
